≈ marks a conversion by molar mass, not a printed value. Read-outs that look alike come from different tables or passages of the source.
Legend:
[1] = system: Vero cells; settings: cited from earlier work; for IC50 (cytotoxic effects): after 48 h, ref 70 (Sevimli-Gur and Yesil-Celiktas); for IC50: read-out: IC50 (cytotoxicity), 24 h of incubation, 5 mM maximum tested dose, ref 69 (Saenglee et al.)
[2] = system: biofilm production of A. baumannii isolates; design: method as in ref 51 (Mumtaz et al., 2023); settings: ref 51 (Mumtaz et al., 2023); cited from earlier work
[3] = system: A. baumannii strains; settings: three A. baumannii isolates; cited from earlier work
[4] = system: COLR-Ab4 isolate; experiment: Scanning electron microscopy of cell morphology; format: cell-based, Acinetobacter baumannii; settings: COLR-Ab4, MIC concentrations, 3 h
Protocol: To examine the potential impact of the antimicrobial agents on the cell morphology of the COLR-Ab4 isolate, SEM studies were carried out according to the method Bendali et al. (2008), with minor modifications. […] Bacteria incubated without treatment with agents were used as controls. After incubation, the suspension was centrifuged for 10 min at 4000× g. The bacteria were washed twice with 0.1 M phosphate-buffered solution (PBS, pH 7.0). The pellet was fixed in 2.5% glutaraldehyde solution and kept for at 4 °C for 2 h. After washing the bacteria again twice with PBS, the sample was fixed in 1% osmium tetroxide solution for 1 h. Then, the samples were dehydrated through suspension in increasing concentrations of ethanol (30, 50, 70, 80, 90, and 100%) for 10 min each. The ethanol was then replaced by 100% acetone. Finally, the samples were fixed on an SEM support, coated with gold/palladium using sputtering in a vacuum, and examined using SEM (Zeiss LEO 1430, Cambridge, UK).

[5] = system: A. baumannii isolates; settings: various A. baumannii isolates; ref 28 (Ibitoye and Ajiboye, 2019); cited from earlier work
[6] = system: COLR-Ab isolates; experiment: Checkerboard synergy test with COL; format: cell-based, Acinetobacter baumannii
Protocol: The checkerboard synergy test, based on microdilution, was carried out to investigate the combined activity of antibiotic and cinnamic acid derivatives. The effectiveness of the two antimicrobial drugs in combination was evaluated using a 96-well microplate for each strain. The medium employed was CAMHB. […] COL was added vertically, and cinnamic acids was added horizontally to the wells. The bacterial suspension was prepared to 0.5 McFarland standard density, and the final bacterial concentration was adjusted to 5 × 10^5 CFU/mL. In total, 10 µL of bacterial inoculum was added to each well. Bacterial growth control (CAMHB + bacteria) and medium sterility control (CAMHB) were also examined for each plate. The plates were incubated at 35 ± 2 °C for 18–24 h. Each experiment was conducted in triplicate.
The fractional inhibition concentrations (FIC) of all antimicrobial agents were calculated for the evaluation of the results in accordance with the following formulae:FICA = (MIC of A in combination/MIC of A alone)FICB = (MIC of B in combination/MIC of B alone)FICindex(FICI) = FICA + FICB
FICI ≤ 0.5 was considered to indicate synergism, […] ≤ 4 was considered to indicate indifference, and FICI > 4 was considered to indicate antagonism. In the formulae, the letter “A” is used to represent COL, while “B” is used to represent one of the compounds, p-CA, FA, and p-MCA.

[7] = system: E. coli; settings: cited from earlier work
[8] = system: Streptococcus pneumoniae; design: method as in ref 35 (Lou et al., 2012); settings: ref 35 (Lou et al., 2012); cited from earlier work
[9] = system: Shigella dysenteriae; settings: ref 35 (Lou et al., 2012); cited from earlier work
[10] = system: HUVEC-originated ECV304 cells; settings: ref 72 (Kong et al.); cited from earlier work
[11] = system: S. aureus; settings: cited from earlier work
[12] = system: Salmonella typhimurium; design: method as in ref 35 (Lou et al., 2012); settings: ref 35 (Lou et al., 2012); cited from earlier work
[13] = system: 293T cells; settings: 24 h, tested range 0.78–200 μg/mL
[14] = system: Bacillus subtilis; settings: cited from earlier work
[15] = system: Salmonella enteritidis; design: method as in ref 29 (Nakazono et al., 2006); settings: ref 29 (Nakazono et al., 2006); cited from earlier work
[16] = system: Micrococcus luteus; design: method as in ref 29 (Nakazono et al., 2006); settings: ref 29 (Nakazono et al., 2006); cited from earlier work

Row | SMILES | IC50 (cytotoxic effects) [1] [mg/L] | IC50 [1] [mM] | Cell morphology by SEM [4] | Interpretation of FICI for COL combined with the compound ([6]; COLR-Ab1) | Mean FICI for COL combined with the compound ([6]; COLR-Ab1) | Interpretation of FICI for COL combined with the compound ([6]; COLR-Ab2) | Mean FICI for COL combined with the compound ([6]; COLR-Ab2) | Interpretation of FICI for COL combined with the compound ([6]; COLR-Ab3) | Mean FICI for COL combined with the compound ([6]; COLR-Ab3) | Interpretation of FICI for COL combined with the compound ([6]; COLR-Ab4) | Mean FICI for COL combined with the compound ([6]; COLR-Ab4) | Interpretation of FICI for COL combined with the compound ([6]; COLR-Ab5) | Mean FICI for COL combined with the compound ([6]; COLR-Ab5) | further results
1 | COc1cc(/C=C/C(=O)O)ccc1O [FA, ferulic acid] | 134 ± 0.8 (≈ 690 µM) | > 5 | certain morphological changes in bacterial cells | S (synergistic effect) | 0.15 | S (synergistic effect) | 0.15 | S (synergistic effect) | 0.15 | I (indifferent effect) | 0.51 | S (synergistic effect) | 0.12 | Inhibition of biofilm production [2]: 49–69%; MIC [3]: 12.5 mg/L (≈ 64.4 µM); Combination effect with quinolone-based antibiotics in words [5]: synergistic effect
2 | O=C(O)/C=C/c1ccc(O)cc1 [p-CA, p-coumaric acid] | 163 ± 0.3 (≈ 993 µM) | > 5 | certain morphological changes in bacterial cells | S (synergistic effect) | 0.16 | S (synergistic effect) | 0.19 | S (synergistic effect) | 0.16 | S (synergistic effect) | 0.15 | S (synergistic effect) | 0.28 | MIC ([7]; ref 35 (Lou et al., 2012)): 20 mg/L (≈ 122 µM); MIC [8]: 10 mg/L (≈ 60.9 µM); MIC [9]: 20 mg/L (≈ 122 µM); Concentration shown to induce cytotoxicity [10]: 5000 µM; Concentrations with no significant effects on the cell viability [10]: ≤ 2500 µM; MIC ([11]; ref 35 (Lou et al., 2012)): 80 mg/L (≈ 487 µM); MIC [12]: 20 mg/L (≈ 122 µM); IC50 value [13]: indeterminate; MIC ([14]; ref 35 (Lou et al., 2012)): 20 mg/L (≈ 122 µM)
3 | COc1ccc(C=CC(=O)O)cc1 [p-MCA, p-methoxycinnamic acid] | – | – | certain morphological changes in bacterial cells | S (synergistic effect) | 0.09 | S (synergistic effect) | 0.09 | S (synergistic effect) | 0.27 | S (synergistic effect) | 0.14 | S (synergistic effect) | 0.27 | MIC [7]: 30 mg/L (≈ 168 µM); MIC ([7]; ref 29 (Nakazono et al., 2006)): 50 mg/L (≈ 281 µM); MIC [15]: 60 mg/L (≈ 337 µM); MIC [16]: 80 mg/L (≈ 449 µM); MIC [11]: 40 mg/L (≈ 224 µM); MIC ([11]; ref 29 (Nakazono et al., 2006)): 60 mg/L (≈ 337 µM); MIC [14]: 40 mg/L (≈ 224 µM)
